Legend:
Format in all cases: in vivo
[1] = tested on: vetch aphid (Megoura viciae); assay: control of vetch aphid through contact or systemic means, broad bean leaf disks in 24-well microtiter plates; settings: sprayed on leaf disks, 5 days, mortality and fecundity
Experimental: (§1) The analysis of synergism or antagonism between the mixtures or compositions was determined using Colbys equation.
For evaluating control of vetch aphid (Megoura viciae) through contact or systemic means the test unit consisted of 24-well-microtiter plates containing broad bean leaf disks.
The compounds or mixtures were formulated using a solution containing 75% water and 25% DMSO. Different concentrations of formulated compounds or mixtures were sprayed onto the leaf disks at 2.5 μl, using a custom built micro atomizer, at two replications.
(§2) For experimental mixtures in these tests identical volumes of both mixing partners at the desired concentrations respectively, were mixed together.
After application, the leaf disks were air-dried and 5-8 adult aphids placed on the leaf disks inside the microtiter plate wells. The aphids were then allowed to suck on the treated leaf disks and incubated at 23+1° C., 50+5% RH for 5 days. Aphid mortality and fecundity was then visually assessed.
In this test the compound 1-2, and N-(3′,4′-dichloro-5-fluorobiphenyl-2-yl)-3-difluoro-methyl-1-methylpyrazole-4-carboxamide (compound 2.1), and 5-chloro-7-(4-methyl-piperidin-1-yl)-6-(2,4,6-trifluorophenyl)-[1,2,4]triazolo[1,5-a]pyrimidine (compound 2.2) were used.

[2] = tested on: boll weevil (Anthonomus grandis); assay: control of boll weevil, insect diet with eggs in 24-well microtiter plates; settings: sprayed onto insect diet, 5 days, egg and larval mortality
Experimental: as §1
For evaluating control of boll weevil (Anthonomus grandis) the test unit consisted of 24-well-microtiter plates containing an insect diet and 20-30 A. grandis eggs.
The compounds or mixtures were formulated using a solution containing 75% water and 25% DMSO. Different concentrations of formulated compounds or mixtures were sprayed onto the insect diet at 20 μl, using a custom built micro atomizer, at two replications.
as §2
After application, microtiter plates were incubated at 23+1° C., 50+5% RH for 5 days. Egg and larval mortality was then visually assessed.
In this test the compound I-2 and N-[2-(1,1,2,3,3,3-hexafluoropropoxy)-phenyl]-3-difluoromethyl-1-methyl-1H-pyrazole-4-carboxamide (compound 3.1), and N-(3′,4′,5′-trifluorobiphenyl-2-yl)-1-methyl-3-difluoromethyl-1H-pyrazole-4-carboxamide (compound 3.2) were used.

[3] = tested on: green peach aphid (Myzus persicae); assay: control of green peach aphid through systemic means, artificial diet under membrane in 96-well microtiter plates; settings: pipetted into aphid diet, 3 days, mortality and fecundity
Experimental: as §1
For evaluating control of green peach aphid (Myzus persicae) through systemic means the test unit consisted of 96-well-microtiter plates containing liquid artificial diet under an artificial membrane.
The compounds or mixtures were formulated using a solution containing 75% water and 25% DMSO. Different concentrations of formulated compounds or mixtures were pipetted into the aphid diet, using a custom built pipetter, at two replications.
as §2
After application, 5 to 8 adult aphids were placed on the artificial membrane inside the microtiter plate wells. The aphids were then allowed to suck on the treated aphid diet and incubated at 23+1° C., 50+5% RH for 3 days. Aphid mortality and fecundity was then visually assessed.
In this test the compound 1-2, and 5-chloro-7-(4-methylpiperidin-1-yl)-6-(2,4,6-trifluoro-phenyl)-[1,2,4]triazolo[1,5-a]pyrimidine (compound 2.2) and N-[2-(1,1,2,3,3,3-hexa-fluoropropoxy)-phenyl]-3-difluoromethyl-1-methyl-1H-pyrazole-4-carboxamide (compound 3.1) were used.

## CNC(=O)c1cc(C#N)cc(C)c1NC(=O)c1cc(Br)nn1-c1ncccc1Cl [I-2]
[1]; 0.5 ppm
  Average Control %: 0%
[1]; 2.5 ppm
  Average Control %: 0%
[2]; 0.5 ppm
  Average Control %: 0%
[3]; 0.5 ppm
  Average Control %: 0%

## Cn1cc(C(=O)Nc2ccc(F)cc2-c2ccc(Cl)c(Cl)c2)c(C(F)F)n1 [2.1, N-(3′,4′-dichloro-5-fluorobiphenyl-2-yl)-3-difluoro-methyl-1-methylpyrazole-4-carboxamide]
[1]; 1000 ppm
  Average Control %: 0%

## Cn1cc(C(=O)Nc2ccccc2OC(F)(F)C(F)C(F)(F)F)c(C(F)F)n1 (stereo not shown) [3.1, N-[2-(1,1,2,3,3,3-hexafluoropropoxy)-phenyl]-3-difluoromethyl-1-methyl-1H-pyrazole-4-carboxamide]
[2]; 40 ppm
  Average Control %: 0%
[3]; 1000 ppm
  Average Control %: 0%

## Cn1cc(C(=O)Nc2ccccc2-c2cc(F)c(F)c(F)c2)c(C(F)F)n1 [3.2, N-(3′,4′,5′-trifluorobiphenyl-2-yl)-1-methyl-3-difluoromethyl-1H-pyrazole-4-carboxamide]
[2]; 200 ppm
  Average Control %: 50%

## CC1CCN(c2c(-c3c(F)cc(F)cc3F)c(Cl)nc3ncnn23)CC1 [2.2, 5-chloro-7-(4-methyl-piperidin-1-yl)-6-(2,4,6-trifluorophenyl)-[1,2,4]triazolo[1,5-a]pyrimidine]
[1]; 40 ppm
  Average Control %: 0%
[3]; 8 ppm
  Average Control %: 0%

Source: US8420569B2, “Pesticidal mixtures” (BASF SE, priority 2006, dated 2013)
